{"source": "patent US5208320A", "about": "“Polypeptide having c-AMP-producing activity” (Takeda Chemical Industries, Ltd., priority 1990, dated 1993)", "key": {"PC12h cells": {"test_system": "PC12h cells", "assay": "c-AMP-producing activity: c-AMP secreted by PC12h cells, radioimmunoassay kit", "type": "cell-based, rat", "conditions": "sample added, 37° C. for 2 hours, c-AMP in culture solution, FIG. 1", "experimental": "In the present invention, c-AMP producing activity was assayed by determining the amount of c-AMP secreted out of cells with a radioimmunoassay kit for measuring c-AMP, using subcultured cell PC12h of rat adrenal medulla origin.\nEstablished cells derived from adrenal medullas, PC12h, were cultivated in Dulbecco's modified Eagle's medium containing 10% semi-fetal calf serum at 37° C. A 48-well collagen-treated plate was inoculated with 5×10^4 cells per well, and cultivation was conducted for 7 to 10 days. Then, the culture medium was exchanged for 500 μl of Hank's balanced salt solution, followed by standing at 37° C. for 30 minutes. A sample to be tested dissolved in the same solution was added thereto, and cultivation was conducted at 37° C. for 2 hours. Subsequently, the amount of c-AMP in this culture solution was assayed by using a kit for measuring c-AMP (Amersham Inc.)."}, "[1]": {"test_system": "neuronal cell death induced by the gp120 envelope glycoprotein of the AIDS virus", "conditions": "known property of VIP; cited from earlier work"}, "[2]": {"conditions": "background art; cited from earlier work"}}, "note": "Ends that are not written are not given here.", "data": [{"substance": "vasoactive intestinal peptide (HSDAVFTDNYTRLRKQMAVKKYLNSILN; ends and bridges not checked; UniProt P01282 125-152, looked up) [VIP, 68% homology with PACAP-27-NH2]", "values": [{"measurement": "c-AMP-producing activity", "setting": "PC12h cells", "value": "weak"}, {"measurement": "protection of neurons from cell death induced by gp120", "setting": "[1]", "value": "capable of protecting neurons from cell death"}, {"measurement": "c-AMP-producing activity", "setting": "[2]", "value": "very weak"}]}]}
